The target of test [1] is T1, GluN1/2A receptors (UniProt P35439+Q12879).
T1 construct: expressed in transfected cells; host or cells: HEK-293T
The test is described as follows: Whole-cell patch-clamp, HEK293T cells expressing recombinant GluN1/2A. Type of test: cell-based. The note with it: 100 μM CNS4 applied 4 s before and with 100 μM glutamate + 100 μM glycine; agonist alone −323.5 ± 82 pA; n = 4(3), p = .12. Here is the method: (§1) Whole‐cell patch‐clamp electrophysiology studies were carried out in HEK‐293T cells expressing recombinant NMDA receptors that lack native functional NMDA receptors.[29], [30], [31] An equal quantity of (1 μg) cDNA for GluN1a, GluN2 subunits were co‐transfected 24‐48 h before patch‐clamp electrophysiology assay. […] Cells were carefully washed before performing experiments and were used for the electrophysiology experiments after 24 to 48 h incubation at 37°C with 5%CO2. The whole‐cell patch‐clamp electrophysiology assay was performed using semi‐automated patch‐clamp equipment, Port‐a‐Patch (Nanion Technologies GmbH). Following are the constituents of various solutions used for patch‐clamp electrophysiology: internal solution ([mM] NaCl 10, EGTA 20, CsF 110, HEPES 10), Mg‐free external (recording) solution ([mM] NaCl 140, KCl 4, CaCl2 2, HEPES 10, D‐GlucoseMonohydrate 5), and Mg‐free seal enhancer solution ([mM] NaCl 80, KCl 3, CaCl2 35, HEPES 10). Nanion NPC chips with […] resistance were used for the HEK‐293T cell recordings.
(§2) FIGURE 1 CNS4 sensitizes ambient concentration of agonists in GluN2 subunit dependent manner. […] Statistical significance was calculated from the Wilcoxon matched‐pairs signed rank test, except the comparison between 1/2A & 1/2AB CNS4 with no agonist data, which was done by unpaired t‐test. […]

Test [2] addresses T2, GluN1/2D NMDA receptors (UniProt O15399+P35439).
T2 construct: host or cells: Xenopus oocytes (cRNA injection)
Nature of the test: TEVC agonist dose-response, Xenopus oocytes expressing 1/2D. Format: cell-based. From the text:
(§3) NMDA receptor constructs: cDNA encoding the NMDA receptor1a subunit (GluN1a) was obtained from Dr. Nakanishi (Kyoto, Japan). cDNA encoding the GluN2B (pci_sepGluN2B), originally developed in the Malinow lab,[33] was purchased from Addgene (cat# 23998), Cambridge, MA. cDNA encoding the GluN2C and GluN2D were purchased from GenScript, New Jersey, USA. Mutated GluN1, 2A and 2B cDNA constructs capable of assembling as GluN1/2A/2B triheteromeric (1/2AB) receptors[34] were obtained from Dr. Paoletti (Laboratoire de Neurobiologie, CNRS). These constructs have been previously tested for 1/2AB receptor activity of GluN1/2A receptor‐selective potentiators.[35] […] Plasmids were linearized with NotI (GluN1a and all five GluN1 mutants) or Avrll (GluN2B), or BstB1 (GluN2C and GluN2D) and transcribed in vitro with T7 (GluN1a, GluN1/2A, GluN2B, GluN2C & GluN2D), and SP6 (GluN1 mutants) RNA polymerase using the mMessage mMachine transcription kits (Invitrogen by Thermo Fisher Scientific).
(§4) Stage IV frog oocytes were obtained from Xenopus‐I, (Ann Arbor, MI, USA). NMDA receptor subunit cRNAs were suspended in nuclease free sterile water. GluN1A, GluN2B, GluN2C, GluN2D and GluN1/2A/2B cRNAs were mixed in a ratio of 1:1–3. 50 nL of the final cRNA mixture was microinjected (40–70 ng total) into the oocyte cytoplasm. Oocytes were incubated in ND‐96 solution at 18°C prior to electrophysiological recordings (2–5 days).
(§5) Electrophysiological responses were measured using a standard two‐microelectrode voltage‐clamp workstation (Warner Instruments model OC‐725C) designed to provide a fast clamp of large cells. The recording buffer contained 116 mM NaCl, 2 mM KCl, 0.3 mM BaCl2, and 5 mM HEPES, pH 7.4. Response magnitude was determined in Xenopus oocytes expressing different NMDA receptor subunits (GluN1/2A, 1/2B, 1/2C, 1/2D, and 1/2A/2B) by the steady plateau response elicited by bath application of different agonist concentrations. […] All data points were obtained from the steady state currents unless stated otherwise. Dose–response relationships were fit to an appropriate curve‐fitting equation using GraphPad Prism‐7. Non‐linear regression was used to calculate EC50, IC50, and fold change or percentage maximal response. Curves were fit using the following equations as performed in the previous studies, [37]: Y=100/1+10^LogEC50−XorY=Bottom+Top−Bottom/1+10^LogEC50−X . Statistical significance was determined at the overall alpha level 0.05, using appropriate statistical methods as described in all figure captions. Technical and biological replicates are explicitly mentioned in each figure legend, as n = X (Y). X represents technical repeats (number of traces) and Y represents biological repeats (number of oocytes or HEK293T cells studied). […]

For test [3], the system named is untransfected HEK293T cells. Nature of the test: Whole-cell patch-clamp on untransfected HEK293T cell. The conditions noted are these: 100 μM CNS4. Type of test: cell-based, human. Here is the method:
as §1, §2
For orientation: The patch-clamp technique gives a direct electrical read-out from membranes.

Test [4] concerns GluN1/2A/2B triheteromeric (1/2AB) NMDA receptors. The test is described as follows: TEVC agonist dose-response, Xenopus oocytes expressing 1/2AB. Format: cell-based.
Excerpt: as §3, §4, §5

SMILES strings stand for the structures. Where “and” joins values, the source holds several entries; their conditions need not be identical. Identical values can stand only once.

T2 sequence (O15399 28-1336, other chains not shown): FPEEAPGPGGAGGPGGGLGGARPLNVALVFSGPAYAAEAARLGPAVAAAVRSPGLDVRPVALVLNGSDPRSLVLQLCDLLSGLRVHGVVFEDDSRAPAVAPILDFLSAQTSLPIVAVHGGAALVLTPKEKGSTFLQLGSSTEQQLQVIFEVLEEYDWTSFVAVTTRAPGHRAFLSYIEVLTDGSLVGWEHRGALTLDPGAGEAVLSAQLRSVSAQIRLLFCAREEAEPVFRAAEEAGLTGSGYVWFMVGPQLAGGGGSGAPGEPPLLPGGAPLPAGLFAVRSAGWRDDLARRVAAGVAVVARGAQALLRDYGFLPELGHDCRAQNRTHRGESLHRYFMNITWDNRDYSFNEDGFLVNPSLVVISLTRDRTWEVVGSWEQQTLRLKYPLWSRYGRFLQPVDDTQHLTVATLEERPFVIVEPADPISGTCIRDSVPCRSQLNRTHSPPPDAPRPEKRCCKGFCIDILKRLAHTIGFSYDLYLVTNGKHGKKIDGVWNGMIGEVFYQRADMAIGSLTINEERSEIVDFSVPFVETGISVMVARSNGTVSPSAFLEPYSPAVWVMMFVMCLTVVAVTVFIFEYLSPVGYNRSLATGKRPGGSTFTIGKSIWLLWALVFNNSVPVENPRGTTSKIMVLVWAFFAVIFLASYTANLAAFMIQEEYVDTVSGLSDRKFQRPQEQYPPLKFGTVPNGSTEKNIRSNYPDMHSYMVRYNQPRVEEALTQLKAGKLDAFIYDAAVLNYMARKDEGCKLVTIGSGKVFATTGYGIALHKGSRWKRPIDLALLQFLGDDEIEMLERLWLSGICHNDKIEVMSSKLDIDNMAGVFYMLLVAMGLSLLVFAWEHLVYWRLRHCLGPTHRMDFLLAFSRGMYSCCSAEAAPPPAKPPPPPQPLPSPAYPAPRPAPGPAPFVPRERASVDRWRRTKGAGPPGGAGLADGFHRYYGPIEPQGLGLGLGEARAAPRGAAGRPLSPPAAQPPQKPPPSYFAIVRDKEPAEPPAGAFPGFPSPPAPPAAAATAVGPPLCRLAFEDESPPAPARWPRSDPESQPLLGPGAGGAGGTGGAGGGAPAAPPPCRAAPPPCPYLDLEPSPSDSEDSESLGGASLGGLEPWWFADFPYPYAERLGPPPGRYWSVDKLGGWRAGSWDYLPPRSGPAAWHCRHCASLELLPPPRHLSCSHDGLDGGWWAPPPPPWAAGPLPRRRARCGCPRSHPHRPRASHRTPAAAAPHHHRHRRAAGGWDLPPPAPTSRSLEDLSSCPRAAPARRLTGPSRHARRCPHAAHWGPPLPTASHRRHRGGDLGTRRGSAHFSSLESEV
T1 sequence (Q12879 23-1464, other chains not shown): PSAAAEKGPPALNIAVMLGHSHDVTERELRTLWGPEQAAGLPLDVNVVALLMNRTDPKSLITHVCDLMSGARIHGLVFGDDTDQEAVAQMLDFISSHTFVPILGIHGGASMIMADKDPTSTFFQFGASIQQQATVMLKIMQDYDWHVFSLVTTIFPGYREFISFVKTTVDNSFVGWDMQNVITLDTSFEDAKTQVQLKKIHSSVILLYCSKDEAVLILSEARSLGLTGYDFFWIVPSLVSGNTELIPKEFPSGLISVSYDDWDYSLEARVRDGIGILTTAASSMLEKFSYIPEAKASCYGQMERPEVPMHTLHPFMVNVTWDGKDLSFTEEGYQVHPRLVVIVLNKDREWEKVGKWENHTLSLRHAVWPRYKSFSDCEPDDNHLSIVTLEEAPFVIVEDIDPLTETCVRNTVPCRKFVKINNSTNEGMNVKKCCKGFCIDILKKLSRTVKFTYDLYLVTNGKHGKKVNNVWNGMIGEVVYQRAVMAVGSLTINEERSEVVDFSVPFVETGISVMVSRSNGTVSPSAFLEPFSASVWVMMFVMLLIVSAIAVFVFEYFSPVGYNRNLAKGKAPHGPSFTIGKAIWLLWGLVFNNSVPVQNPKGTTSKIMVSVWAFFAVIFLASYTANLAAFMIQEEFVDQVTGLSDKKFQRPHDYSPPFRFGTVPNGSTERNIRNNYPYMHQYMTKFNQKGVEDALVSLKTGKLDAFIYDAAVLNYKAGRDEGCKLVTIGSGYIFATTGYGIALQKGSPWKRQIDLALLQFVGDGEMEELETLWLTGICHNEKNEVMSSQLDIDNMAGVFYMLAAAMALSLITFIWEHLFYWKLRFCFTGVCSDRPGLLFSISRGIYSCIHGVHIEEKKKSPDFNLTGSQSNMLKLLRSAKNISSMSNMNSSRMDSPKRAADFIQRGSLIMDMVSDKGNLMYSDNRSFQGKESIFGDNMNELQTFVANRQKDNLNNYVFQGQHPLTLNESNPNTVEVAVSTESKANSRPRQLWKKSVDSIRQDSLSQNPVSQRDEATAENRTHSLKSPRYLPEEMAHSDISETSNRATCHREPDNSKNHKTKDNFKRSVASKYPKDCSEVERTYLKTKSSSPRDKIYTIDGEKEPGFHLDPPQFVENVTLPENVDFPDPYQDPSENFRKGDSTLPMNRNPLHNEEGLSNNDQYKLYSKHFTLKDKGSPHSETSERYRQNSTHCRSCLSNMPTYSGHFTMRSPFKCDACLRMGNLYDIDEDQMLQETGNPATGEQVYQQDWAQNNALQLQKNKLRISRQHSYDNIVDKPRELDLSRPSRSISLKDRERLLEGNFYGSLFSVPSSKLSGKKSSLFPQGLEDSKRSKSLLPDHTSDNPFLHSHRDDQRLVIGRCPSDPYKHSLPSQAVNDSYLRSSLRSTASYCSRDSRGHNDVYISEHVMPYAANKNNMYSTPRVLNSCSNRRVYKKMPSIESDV

As for `O=C(NC(=S)N1CCCCC1c1cccnc1)c1ccc(F)cc1` (stereo not drawn) [CNS4], in test [1], the Peak current amplitude was −469.3 ± 152 pA. In addition, the “Effect on glutamate efficacy with vs without CNS4 (insignificant)” value in test [2] (30 μM CNS4) was 0.8 fold. Further, the “Increase in glycine efficacy with vs without CNS4” value in test [2] (30 μM CNS4, 10 μM glycine) was 1.89 fold and 1.9 fold. Also, the “Glycine efficacy: relative fold change in current at highest glycine concentration” value in test [2] (with 30 μM CNS4, 10 μM glycine, 100 μM glutamate constant, relative to 100 nM glycine, p = .0014) worked out at 2.04 ± 0.19 fold; in test [4] (with 30 μM CNS4, 100 μM glutamate constant, relative to 1 μM glycine, p = .0019) it was 1.37 ± 0.08 fold. Also, the “Glutamate efficacy: relative fold change in current at highest glutamate concentration” value is listed as 6.90 ± 0.62 fold in test [2] (with 30 μM CNS4, 100 μM glycine constant, relative to 100 nM glutamate, p = .1735) and 2.79 ± 0.43 fold in test [4] (with 30 μM CNS4, 100 μM glycine constant, relative to 1 μM glutamate, p = .0001). The Current response entry in test [3] is reported as “did not produce any measurable current response”. The “Reduction in glutamate efficacy with vs without CNS4” value in test [4] (30 μM CNS4) is 5.3 fold.

For the origin of these results see article PMC10245146, “CNS4 causes subtype‐specific changes in agonist efficacy and reversal potential of permeant cations in NMDA receptors” (Pharmacology Research & Perspectives, 2023).
